Assay results from PubChem BioAssay AID1963847 (Molecular Pharmacology Branch, DTP, NCI, 2024).

Test system: 415267-285-R-J2-PDC complex spheroid viability
Assay: Anticancer human tumor 415267-285-R-J2-PDC patient-derived breast carcinoma cell line growth inhibition [POLQ]
Details: for IC50: curve of first compound; for viability, T/C: stronger effect = lower value; active = viability on the fitted dose curve at most 10% of control; inactive = the rest
Outline: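 Three-cell-type spheroids modelling solid tumor plus stroma served as the readout system; POL inhibitors were tested individually and in combination, concentration ranges set by clinical Cmax where known.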

[1] = second compound 0.0316 µM, first compound 0.0316 µM
[2] = second compound 0.0316 µM, first compound 0.1 µM
[3] = second compound 0.0316 µM, first compound 0.316 µM
[4] = second compound 0.0316 µM, first compound 1 µM
[5] = second compound 0.0316 µM, first compound 3.16 µM
[6] = second compound 0.0316 µM, first compound 10 µM
[7] = second compound 0.1 µM, first compound 0.0316 µM
[8] = second compound 0.1 µM, first compound 0.1 µM
[9] = second compound 0.1 µM, first compound 0.316 µM
[10] = second compound 0.1 µM, first compound 1 µM
[11] = second compound 0.1 µM, first compound 3.16 µM
[12] = second compound 0.1 µM, first compound 10 µM
[13] = second compound 0.316 µM, first compound 0.0316 µM
[14] = second compound 0.316 µM, first compound 0.1 µM
[15] = second compound 0.316 µM, first compound 0.316 µM
[16] = second compound 0.316 µM, first compound 1 µM
[17] = second compound 0.316 µM, first compound 3.16 µM
[18] = second compound 0.316 µM, first compound 10 µM
[19] = second compound 1 µM, first compound 0.0316 µM
[20] = second compound 1 µM, first compound 0.1 µM
[21] = second compound 1 µM, first compound 0.316 µM
[22] = second compound 1 µM, first compound 1 µM
[23] = second compound 1 µM, first compound 3.16 µM
[24] = second compound 1 µM, first compound 10 µM
[25] = second compound 3.16 µM, first compound 0.0316 µM
[26] = second compound 3.16 µM, first compound 0.1 µM
[27] = second compound 3.16 µM, first compound 0.316 µM
[28] = second compound 3.16 µM, first compound 1 µM
[29] = second compound 3.16 µM, first compound 3.16 µM
[30] = second compound 3.16 µM, first compound 10 µM
[31] = second compound 10 µM, first compound 0.0316 µM
[32] = second compound 10 µM, first compound 0.1 µM
[33] = second compound 10 µM, first compound 0.316 µM
[34] = second compound 10 µM, first compound 1 µM
[35] = second compound 10 µM, first compound 3.16 µM
[36] = second compound 10 µM, first compound 10 µM
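Also: spheroids exposed to compounds for one week before readout.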
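For viability, T/C in this document: luminescence used as stand-in measure of viable cells; 100% = DMSO vehicle control viability.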

CNCc1ccc(-c2[nH]c3cc(F)cc4c3c2CCNC4=O)cc1 + COC1C(OC(N)=O)C(O)C(Oc2ccc3c(O)c(NC(=O)c4ccc(O)c(CC=C(C)C)c4)c(=O)oc3c2C)OC1(C)C
inactive: viability, T/C [1] 114% | viability, T/C [2] 104% | viability, T/C [3] 99% | viability, T/C [4] 113% | viability, T/C [5] 117% | viability, T/C [6] 113% | viability, T/C [7] 97.7% | viability, T/C [8] 103% | viability, T/C [9] 117% | viability, T/C [10] 107% | viability, T/C [11] 106% | viability, T/C [12] 106% | viability, T/C [13] 95.7% | viability, T/C [14] 109% | viability, T/C [15] 95.3% | viability, T/C [16] 114% | viability, T/C [17] 102% | viability, T/C [18] 98.8% | viability, T/C [19] 115% | viability, T/C [20] 105% | viability, T/C [21] 97.8% | viability, T/C [22] 127% | viability, T/C [23] 102% | viability, T/C [24] 98.7% | viability, T/C [25] 95% | viability, T/C [26] 99.4% | viability, T/C [27] 120% | viability, T/C [28] 116% | viability, T/C [29] 102% | viability, T/C [30] 104% | viability, T/C [31] 104% | viability, T/C [32] 108% | viability, T/C [33] 104% | viability, T/C [34] 106% | viability, T/C [35] 99.9% | viability, T/C [36] 111%
> 10 µM: IC50 (second compound 0.0316 µM) | IC50 (second compound 0.1 µM) | IC50 (second compound 0.316 µM) | IC50 (second compound 1 µM) | IC50 (second compound 3.16 µM) | IC50 (second compound 10 µM)

Cn1ncnc1[C@H]1c2n[nH]c(=O)c3cc(F)cc(c23)N[C@@H]1c1ccc(F)cc1 + COC1C(OC(N)=O)C(O)C(Oc2ccc3c(O)c(NC(=O)c4ccc(O)c(CC=C(C)C)c4)c(=O)oc3c2C)OC1(C)C
> 0.1 µM: IC50 (second compound 0.0316 µM) | IC50 (second compound 0.1 µM) | IC50 (second compound 0.316 µM) | IC50 (second compound 1 µM) | IC50 (second compound 3.16 µM) | IC50 (second compound 10 µM)
inactive: viability, T/C (second compound 0.0316 µM, first compound 0.000316 µM) 102% | viability, T/C (second compound 0.0316 µM, first compound 0.001 µM) 98.6% | viability, T/C (second compound 0.0316 µM, first compound 0.00316 µM) 113% | viability, T/C (second compound 0.0316 µM, first compound 0.01 µM) 101% | viability, T/C [1] 107% | viability, T/C [2] 93% | viability, T/C (second compound 0.1 µM, first compound 0.000316 µM) 105% | viability, T/C (second compound 0.1 µM, first compound 0.001 µM) 99.3% | viability, T/C (second compound 0.1 µM, first compound 0.00316 µM) 101% | viability, T/C (second compound 0.1 µM, first compound 0.01 µM) 103% | viability, T/C [7] 97.8% | viability, T/C [8] 106% | viability, T/C (second compound 0.316 µM, first compound 0.000316 µM) 112% | viability, T/C (second compound 0.316 µM, first compound 0.001 µM) 99.6% | viability, T/C (second compound 0.316 µM, first compound 0.00316 µM) 94.2% | viability, T/C (second compound 0.316 µM, first compound 0.01 µM) 106% | viability, T/C [13] 107% | viability, T/C [14] 104% | viability, T/C (second compound 1 µM, first compound 0.000316 µM) 97.6% | viability, T/C (second compound 1 µM, first compound 0.001 µM) 93.3% | viability, T/C (second compound 1 µM, first compound 0.00316 µM) 94.8% | viability, T/C (second compound 1 µM, first compound 0.01 µM) 97.9% | viability, T/C [19] 109% | viability, T/C [20] 105% | viability, T/C (second compound 3.16 µM, first compound 0.000316 µM) 89.6% | viability, T/C (second compound 3.16 µM, first compound 0.001 µM) 92.9% | viability, T/C (second compound 3.16 µM, first compound 0.00316 µM) 95.4% | viability, T/C (second compound 3.16 µM, first compound 0.01 µM) 105% | viability, T/C [25] 109% | viability, T/C [26] 103% | viability, T/C (second compound 10 µM, first compound 0.000316 µM) 105% | viability, T/C (second compound 10 µM, first compound 0.001 µM) 101% | viability, T/C (second compound 10 µM, first compound 0.00316 µM) 101% | viability, T/C (second compound 10 µM, first compound 0.01 µM) 96.3% | viability, T/C [31] 102% | viability, T/C [32] 96.1%

O=C(c1cc(Cc2n[nH]c(=O)c3ccccc23)ccc1F)N1CCN(C(=O)C2CC2)CC1 + COC1C(OC(N)=O)C(O)C(Oc2ccc3c(O)c(NC(=O)c4ccc(O)c(CC=C(C)C)c4)c(=O)oc3c2C)OC1(C)C
> 10 µM: IC50 (second compound 0.0316 µM) | IC50 (second compound 0.1 µM) | IC50 (second compound 0.316 µM) | IC50 (second compound 1 µM) | IC50 (second compound 3.16 µM) | IC50 (second compound 10 µM)
inactive: viability, T/C [1] 88% | viability, T/C [2] 92.7% | viability, T/C [3] 89.4% | viability, T/C [4] 94.3% | viability, T/C [5] 96.5% | viability, T/C [6] 81.8% | viability, T/C [7] 95.5% | viability, T/C [8] 94% | viability, T/C [9] 87% | viability, T/C [10] 92% | viability, T/C [11] 94.6% | viability, T/C [12] 79.6% | viability, T/C [13] 93.5% | viability, T/C [14] 102% | viability, T/C [15] 98.2% | viability, T/C [16] 96.6% | viability, T/C [17] 90.4% | viability, T/C [18] 95.1% | viability, T/C [19] 98.5% | viability, T/C [20] 101% | viability, T/C [21] 96.8% | viability, T/C [22] 90.9% | viability, T/C [23] 96% | viability, T/C [24] 77.9% | viability, T/C [25] 97.2% | viability, T/C [26] 91.9% | viability, T/C [27] 90.8% | viability, T/C [28] 94.8% | viability, T/C [29] 98.3% | viability, T/C [30] 81.4% | viability, T/C [31] 97.6% | viability, T/C [32] 105% | viability, T/C [33] 92% | viability, T/C [34] 93.2% | viability, T/C [35] 89.2% | viability, T/C [36] 79.7%
